Where “and” joins values, the source holds several entries; their conditions need not be identical. Equal entries are not always repeated.
Tests used:
[1] = Luminex-based multiplex serological assay (IgG to recombinant T. cruzi proteins); format: in vivo, rhesus macaques (Macaca mulatta); conditions: treated animal T19
Method: Luminex-based multiplex serological assays were performed as previously described, [17]. For a number of smaller proteins, fusions of up to 2 individual genes are employed for some target proteins in order to expand the array of antibodies being detected while controlling costs and complexity of the assay. (TritrypDb.org identifiers: Tc1= fusion of TcBrA4_0116860 and TcYC6_0028190; Tc2= fusion of TcBrA4_0088420 and TcBrA4_0101960; Tc3 = fusion of TcBrA4_0104680 and TcBrA4_0101980; Tc4= fusion of TcBrA4_0028480 and TcBrA4_0088260; Tc5 = fusion of TcYC6_0100010 and TcBrA4_0074300; Tc7 = fusion of TcYC6_0083710 and TcBrA4_0130080; Tc8 = TcYC6_0037170; Tc11 = TcYC6_0124160; Tc17 = fusion of TcBrA4_0028230 and TcBrA4_0029760; Kn107 = TcCLB.508355.250; G10 = TcCLB.504199.20). Macaque antibody binding to individual beads in the Multiplex assays was detected with donkey anti-human IgG (H+L) conjugated to phycoerythrin (Jackson ImmunoResearch) in a 1:200 dilution.

[2] = system: TcCBP KO T. cruzi extracellular amastigotes; assay: Extracellular amastigote assay with serine carboxypeptidase knockout T. cruzi; format: cell-based, Trypanosoma cruzi; conditions: for % of maximum: Fig 2.c, TcCBP KO
Method: The in vitro anti-T. cruzi amastiogote activity assay was performed and optimized based on the protocol described previously. The change in tdTomato fluorescence intensity was determined as a measurement of growth over 72 hours of culture. For assaying drug effects on extracellular amastigotes, trypomastigotes were collected from infected Vero cell cultures and converted in acidic media as previously described. Amastigotes (50,000/well) were incubated with 2-fold serial dilutions of compounds for 48 hours. The ATP production was used as an indication of growth in this case, and was measured by ATPlite Luminescence ATP Detection Assay System (PerkinElmer). Both fluorescence and luminescence were read using a BioTek Synergy Hybrid Multi-Mode reader equipped with the software Gene5 v 2.0 (BioTek). The dose-response curve was generated by […] analysis with GraphPad Prism v9.4.0 (GraphPad Software).
The CBPs knockout was produced using ribonucleoprotein (RNP) complexes as previously described. Briefly, Brazil tdTomato strain epimastigotes were electroporated with RNP complexes containing SaCas9 and an sgRNA targeting CBP gene TcBrA4_0048170, plus a repair template containing stop codons in all three reading frames and the M13 sequence for use as a PCR anchor. The sgRNA targeted the ‘[…]” sequence. After 2 days of recovery, single-cell clones were derived by depositing epimastigotes into a 96-well plate at a density of 0.5 cell/well by using a MoFlo Astrios EQ cell sorter (Beckman Coulter). DNA isolation was performed for clones, and primer pair of 5’-[…]-3’ and 5’- […] -3’ was used for amplifying the wild type allele, while primer pair of M13-F: 5’- […] -3’ and 5’- […] -3’ was used for amplifying the mutant allele.

Cc1c(C(=O)N[C@H](C(=O)OCC2CCOCC2)C(C)C)ccc2c1B(O)OC2 [AN15368]
IgG response to GFP (58) ([1]; 2017-09-13): 58.5 | IgG response to GFP (58) ([1]; 2017-11-17): -25.0 | IgG response to GFP (58) ([1]; 2017-12-06): 27.0 | IgG response to GFP (58) ([1]; 2017-12-20): -24.3 | IgG response to GFP (58) ([1]; 2018-01-09): 103.5 | IgG response to GFP (58) ([1]; 2018-01-23): -17.8 | IgG response to GFP (58) ([1]; 2018-02-27): -110.5 | IgG response to GFP (58) ([1]; 2018-03-28): -15.8 | IgG response to GFP (58) ([1]; 2019-02-19): -19.0 | IgG response to GFP (58) ([1]; 2020-06-18): -50.3 | IgG response to GFP (58) ([1]; 2021-05-20): -25.5

Cc1c(C(=O)NC(C(=O)OCc2ccc(F)c(F)c2)C(C)C)ccc2c1B(O)OC2 (centres unmarked) [AN14353]
% of maximum ([2]; 0.00): 11% and 2% and 8% | % of maximum ([2]; 0.30): 1% and -4% and 3% | % of maximum ([2]; -0.30): 1% and 9% | % of maximum ([2]; -0.60): 14% and 11% and 5% | % of maximum ([2]; -0.90): 20% and 18% and 16% | % of maximum ([2]; -1.20): 31% and 40% and 33% | % of maximum ([2]; -1.51): 54% and 51% and 59% | % of maximum ([2]; -1.81): 101% and 104% and 95% | % of maximum ([2]; -2.11): 106% and 104% and 96% | % of maximum ([2]; -2.41): 101% and 104% | % of maximum ([2]; -2.71): 100% and 102% | IC50 ([2]; Trypanosoma cruzi, read-out: TcCBP KO IC50): 44.4 nM

Reference: PMC9519446, “Discovery of an Orally Active Benzoxaborole Prodrug Effective in the Treatment of Chagas Disease in Non-human Primates” (Nature microbiology, 2022)
